Data as given in US7846934B2, “Furo[3,2-B] pyrrol-3-one derivatives and their use as cysteinyl proteinase inhibitors” (Amura Therapeutics Limited, priority 2007, dated 2010).

How the values were obtained:
human osteoclasts [1] = test: Human osteoclast resorption assay; assay type: cell-based; details: for inhibition at 1 µM: Homo sapiens, Osteoclast, read-out: Cell-based % Inh. @ 1 μM Human
Procedure: Bone resorption was studied using a model where human osteoclast precursor cells were cultured on bovine bone slices for 9 days and allowed to differentiate into bone-resorbing osteoclasts. The formed mature osteoclasts were then allowed to resorb bone. The assay was performed by Pharmatest Services Ltd, Itäinen Pitkakatu 4C, Turku, Finland. After the culture period, bone collagen degradation products were quantified from the culture medium as an index of bone resorption. Inhibitor compounds were added into the cell cultures after the differentiation period and their effects on the resorbing activity of mature osteoclasts were determined. The studies included a baseline group without added compounds and a positive control group where a potent cathepsin K inhibitor E-64 was added.
Human peripheral blood monocytes were suspended to culture medium and allowed to attach to bovine bone slices. The bone slices were transferred into 96-well tissue culture plates containing culture medium with appropriate amounts of important growth factors favouring osteoclast differentiation, including M-CSF, RANK-ligand and TGF-β. The cells were incubated in a CO2 incubator in humidified atmosphere of 95% air and 5% carbon dioxide at 37° C. At day 7 when osteoclast differentiation was complete, the culture medium was replaced with culture medium containing conditions favouring osteoclast activity. The cell culture was continued for an additional 2 days, during which the formed mature osteoclasts were allowed to resorb bone in the presence of vehicle, control inhibitor (E64) or test compounds. At the end of the culture, bone collagen degradation products released into the culture medium were determined using a commercially available ELISA method (CrossLaps® for culture, Nordic Bioscience, Herlev, Denmark) as an index of bone resorption (see Bagger, Y. Z. et al, J. Bone. Miner. Res. 14 (suppl. 1), S370).

rat osteoclasts = test: Rat osteoclast resorption assay; details: read-out: Cell-based % Inh. @ 1 μM Rat
Procedure: Bone resorption was studied using a model where mature osteoclasts derived from rat bone were cultured on bovine bone slices for 3 days and allowed to resorb bone in the presence of inhibitor, positive control (E-64) or vehicle. More specifically, tibia, femori and humeri were removed from 1 day old rat pups. The endosteal surfaces of the bones were scraped with a scapelto release osteoclasts into the culture medium and the osteoclasts were allowed to attach to bovine bone slices. After the culture period, bone collagen degradation products were quantified from the culture medium as an index of bone resorption. The assay was performed by Pharmatest Services Ltd, Itäinen Pitkakatu 4C, Turku, Finland.

[2] = Plasma incubations (human plasma stability); details: 37° C., 25 μM
Procedure: Human and rat plasma were purchased from Innovative Research Inc. (Southfield. Mich., USA). […] Aliquots were removed at 2 and 60 minutes and quenched with an equal volume of cold acetonitrile. After mixing vigorously, the precipitated protein matter was removed by filtration (Multiscreen Solvinert filter plates, Millipore, Bedford, Mass., USA) and the filtrate analysed by reverse phase HPLC with mass spectrometric detection, using single ion monitoring of the [M+H]^+ species. Metabolic turnover was determined by comparison of peak areas from the ion chromatograms of the parent compound at 2 and 60 minutes and expressed as percent remaining at 1 hour.

[3] = Liver microsomal incubations (HLM stability); details: human liver microsomes, 25 μM
[4] = molecular target: T1, Human recombinant cathepsin K (Homo sapiens, UniProt P43235); test: In vitro cathepsin Ki inhibition measurements; assay type: biochemical; details: Table 1; read-out: In vitro Ki (nM) vs Cath K
T1 construct: B. Turk, Josef Stefan Institute, Ljubljana, Slovenia (academic supplier)
T1 sequence (P43235 115-329): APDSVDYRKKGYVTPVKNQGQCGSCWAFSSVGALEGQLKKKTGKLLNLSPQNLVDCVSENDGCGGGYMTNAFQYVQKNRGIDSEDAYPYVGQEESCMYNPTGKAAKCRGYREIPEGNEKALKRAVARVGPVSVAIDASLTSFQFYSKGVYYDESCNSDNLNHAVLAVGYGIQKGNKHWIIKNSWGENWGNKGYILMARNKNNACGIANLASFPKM
Procedure: Stock solutions of substrate or inhibitor were made up to 10 mM in 100% dimethylsulfoxide (DMSO) (Rathburns, Glasgow, U.K.) and diluted as appropriately required. In all cases the DMSO concentration in the assays was maintained at less than 1% (vol./vol.). The equilibrium inhibition constants (Ki^SS) for each compound were measured under steady-state conditions monitoring enzyme activity as a function of inhibitor concentration. The values were calculated on the assumption of pure competitive behaviour (Comish-Bowden, A. Fundamentals of enzyme kinetics Portland Press; 1995, 93-128).
The apparent inhibition constant (Ki) for each compound was determined on the basis that inhibition was reversible and occurred by a pure-competitive mechanism. The Ki values were calculated, from the dependence of enzyme activity as a function of inhibitor concentration, by direct regression analysis (Prism v 3.02) using Equation 2 (Cornish-Bowden, A., 1995).
In situations where the apparent dissociation constant (Ki^app) approached the enzyme concentrations, the Ki^app values were calculated using a quadratic solution in the form described by Equation 3 (Morrison, J. F. Trends Biochem. Sci., 7, 102-105, 1982; Morrison, J. F. Biochim. Biophys. Acta, 185 269-286, 1969; Stone, S. R. and Hofsteenge, J. Biochemistry, 25, 4622-4628, 1986).
Curves were fitted by non-linear regression analysis (Prism) using a fixed value for the enzyme concentration. Equation 4 was used to account for the substrate kinetics, where ‘Ki’ is the inhibition constant, ‘[S0]’ is the initial substrate concentration and ‘KM^app’ is the apparent macroscopic binding (Michaelis) constant for the substrate (Morrison, 1982).

[5] = LogD determinations (shake-flask, octanol/PBS); details: 1-octanol/phosphate buffered saline, pH 7.4
Procedure: LogD(PBS) determinations were performed in 96 well microtitre plates using a miniaturised “shake-flask” method. […] The plates were then capped and mixed vigorously for 1 hour on a microtitre plate shaker, after which they were left to stand, allowing the PBS and octanol phases to separate. The PBS layer was analysed by reverse phase HPLC with mass spectrometric detection, using single ion monitoring of the [M+H]^+ species.
[formula] Where AUCstd and AUCpbs are the peak areas from the standard and test ion chromatograms respectively.

human osteoclasts [6] = details: literature value; cited from earlier work

Compound	inhibition at 1 µM (human osteoclasts [1]) [%]	inhibition at 1 µM (rat osteoclasts) [%]	Human Plasma Stability % rem. @ 1 H [2] [%]	HLM % rem. @ 1 hr [3] [%]	Ki [4] [nM]	Cell-based % Inh. @ 1 μM Human (human osteoclasts [1]) [%]	logD at 1 h [5]	Cell-based % Inh. @ 1 μM Human (Lit.) (human osteoclasts [6])	LogD pH 7.4
CC(C)C[C@H](NC(=O)c1ccc(N2CCN(C)CC2)cc1)C(=O)N1CC[C@H]2OCC(=O)[C@H]21 [Example 1, 4-(4-methylpiperazin-1-yl)-N-((S)-4-methyl-1-oxo-1-((3aS,6aR)-3-oxodihydro-2H-furo[3,2-b]pyrrol-4(5H, 6H, 6aH)-yl)pentan-2-yl)benzamide, reference compound]	55	43	95	95					
CN1CCN(c2ccc(C(=O)N[C@H](C(=O)N3CC[C@H]4OCC(=O)[C@H]43)C3CCCCC3)cc2)CC1 [Example 2, N-((S)-1-cyclohexyl-2-oxo-2-((3aS,6aR)-3-oxodihydro-2H-furo[3,2-b]pyrrol-4(5H,6H,6aH)-yl)ethyl)-4-(4-methylpiperazin-1-yl)benzamide]	74 to 76	0	99	91	14	76	1.21		
CN1CCN(c2ccc(C(=O)N[C@H](C(=O)N3CC[C@H]4OCC(=O)[C@H]43)C3CCCC3)cc2)CC1 [Example 3, N-((S)-1-cyclopentyl-2-oxo-2-((3aS,6aR)-3-oxodihydro-2H-furo[3,2-b]pyrrol-4(5H,6H,6aH)-yl)ethyl)-4-(4-methylpiperazin-1-yl)benzamide]	74 to 76	60	97	91	2	74	0.78		
CC(C)C[C@H](NC(=O)c1ccc(C(C)(C)C)cc1)C(=O)N1CC[C@H]2OCC(=O)[C@H]21 [reference compound]			75	70				Lit. 60%	
N-((S)-1-cyclopentyl-2-oxo-2-((3aS,6aR)-3-oxodihydro-2H-furo[3,2-b]pyrrol-4(5H,6H,6aH)-yl)ethyl)-4-(4-propylpiperazin-1-yl)benzamide [Example 17]					7	>80			1.55
